Measured values taken from patent US9555014B2, “Therapeutic regimens” (Radius Health, Inc., priority 2010, dated 2017).
Counter-ions that a name gives are not always drawn.

Test system: postmenopausal women with frequent, moderate to severe vasomotor symptoms (hot flashes)
Experiment: Phase 2a study: hot flash frequency, severity and composite score
Type: in vivo, human (postmenopausal women)
Settings: for Composite Scores by Week: mean; for Mean Severity Scores by Week / Weekly Mean Frequency of Mild, Moderate and Severe Hot Flash Numbers / Weekly Mean Frequency of Moderate and Severe Hot Flash Numbers: mean (SD)
From the text: A phase 2a study was undertaken to assess the effect of (R)-6-(2-(ethyl(4-(2-(ethylamino)ethyl)benzyl)amino)-4-methoxyphenyl)-5,6,7,8-tetrahydronaphthalen-2-ol dihydrochloride (referred to as “drug” in tables below) to alleviate hot flashes in postmenopausal women. The study design and objectives are detailed below.
This is a randomized, placebo-controlled, double-blind, parallel-group, Phase 2, multi-center, dose-finding study to evaluate the effects of (R)-6-(2-(ethyl(4-(2-(ethylamino)ethyl)benzyl)amino)-4-methoxyphenyl)-5,6,7,8-tetrahydronaphthalen-2-ol dihydrochloride in the treatment of vasomotor symptoms in postmenopausal women.
A total of 100 eligible patients will be randomized to receive one of 5 blinded treatment regimens. (R)-6-(2-(ethyl(4-(2-(ethylamino)ethyl)benzyl)amino)-4-methoxyphenyl)-5,6,7,8-tetrahydronaphthalen-2-ol dihydrochloride at doses 0, 10, 25, 50 or 100 mg will be dosed for 28-days.
Patients will document in real time hot flash frequency and severity according to a predetermined scale, in the provided electronic or paper Study Diary. Study Diary entries of hot flash frequency and severity and associated symptoms will be reviewed at each study visit. Serum markers of estrogen effect will be measured at specific study visits while on treatment.
The efficacy endpoints assessed are: • Change in frequency of hot flashes over time • Change in severity of hot flashes over time; • Change in composite score of hot flashes over time (frequency×severity)
(R)-6-(2-(ethyl(4-(2-(ethylamino)ethyl)benzyl)amino)-4-methoxyphenyl)-5,6,7,8-tetrahydronaphthalen-2-ol dihydrochloride was provided by sponsor in capsule form for oral administration. All doses (0, 10, 25, 50 and 100 mg) were provided as identical presentations. Each patient was provided with 2 containers of 28-capsules each at the start of treatment and took one capsule from each container every day for 28-days. Placebo contained the same excipients as active medication, but without (R)-6-(2-(ethyl(4-(2-(ethylamino)ethyl)benzyl)amino)-4-methoxyphenyl)-5,6,7,8-tetrahydronaphthalen-2-ol dihydrochloride. The patients were instructed to take the capsules orally in the fasted state (morning).
Changes in the efficacy endpoints of frequency, severity, and composite score of hot flashes over time; associated hot flash symptoms (palpitations, insomnia, joint aches, and headaches), PD markers of estrogen effect (FSH, LH, and lipid profile), drug levels, and MRS were to be summarized using descriptive statistics. Frequency, severity, and composite score of hot flashes over time were to be analyzed using repeated measures analysis of variance (ANOVA) with factors for treatment (treatment groups), time (study day) and their interaction. A linear trend test for treatment groups (placebo, and 10, 25, 50, 100 mg doses of drug) and for study day as well as any potential interaction between the two was to be included as part of the analyses by including both dose and time as continuous variables in the ANOVA model. Pair-wise comparisons of change from baseline were to be tested between the placebo group and each drug dose group for each timepoint; the mean difference together with a 95% confidence interval of the difference was to be presented for placebo compared with each active treatment group. Nominal p-values at Week 4 were to be presented. In addition, graphical presentations of mean (±standard error of the mean) and percent group responses over time together with repeated measures ANOVA to assess potential trend in responses over time in each dose group were to be presented. For the associated vasomotor symptoms (palpitations, insomnia, joint aches, and headaches collected in the patient diaries), patient and event frequencies were to be summarized by treatment week and treatment group.
Hot flashes were also scored according to their severity with a mild hot flash scored a “1”, a moderate hot flash scored a “2” and a severe hot flash scored a “3”. […]

Structure (SMILES): CCNCCc1ccc(CN(CC)c2cc(OC)ccc2[C@@H]2CCc3cc(O)ccc3C2)cc1 [drug, (R)-6-(2-(ethyl(4-(2-(ethylamino)ethyl)benzyl)amino)-4-methoxyphenyl)-5,6,7,8-tetrahydronaphthalen-2-ol dihydrochloride]
- Composite Scores by Week (10 mg daily PO, Week 1, ITT): 73.68
- Mean Severity Scores by Week (10 mg daily PO, Week 1, ITT): 1.99 (0.460)
- Weekly Mean Frequency of Mild, Moderate and Severe Hot Flash Numbers (10 mg daily PO, Week 1, ITT): 36.0 (18.97)
- Weekly Mean Frequency of Moderate and Severe Hot Flash Numbers (10 mg daily PO, Week 1, ITT): 30.4 (18.92)
- Composite Scores by Week (10 mg daily PO, Week 2, ITT): 47.75
- Mean Severity Scores by Week (10 mg daily PO, Week 2, ITT): 1.80 (0.514)
- Weekly Mean Frequency of Mild, Moderate and Severe Hot Flash Numbers (10 mg daily PO, Week 2, ITT): 27.2 (15.16)
- Weekly Mean Frequency of Moderate and Severe Hot Flash Numbers (10 mg daily PO, Week 2, ITT): 18.5 (13.34)
- Composite Scores by Week (10 mg daily PO, Week 3, ITT): 37.15
- Mean Severity Scores by Week (10 mg daily PO, Week 3, ITT): 1.84 (0.570)
- Weekly Mean Frequency of Mild, Moderate and Severe Hot Flash Numbers (10 mg daily PO, Week 3, ITT): 21.2 (12.99)
- Weekly Mean Frequency of Moderate and Severe Hot Flash Numbers (10 mg daily PO, Week 3, ITT): 14.5 (11.92)
- Composite Scores by Week (10 mg daily PO, Week 4, ITT): 34.35
- Mean Severity Scores by Week (10 mg daily PO, Week 4, ITT): 1.86 (0.562)
- Weekly Mean Frequency of Mild, Moderate and Severe Hot Flash Numbers (10 mg daily PO, Week 4, ITT): 19.1 (12.95)
- Weekly Mean Frequency of Moderate and Severe Hot Flash Numbers (10 mg daily PO, Week 4, ITT): 13.4 (11.54)
- reduction in severity of hot flashes compared with other groups (10 mg dose vs placebo and 25, 50, 100 mg, Table 8 / FIG. 3): greatest reduction in severity of hot flashes at all time points
- reduction in moderate and severe hot flashes compared with other groups (10 mg group vs placebo and 25, 50, 100 mg, Table 6 / FIG. 1): greatest reduction in hot flashes at each weekly time point
- reduction in all (mild, moderate and severe) hot flashes compared with other groups (10 mg group vs placebo and 25, 50, 100 mg, Table 7): greatest reduction in hot flashes at each weekly time point
- composite score reduction compared with other groups (10 mg group vs placebo and 25, 50, 100 mg, Table 9 / FIG. 4): greatest composite score reduction at each weekly timepoint
- Weekly Mean Frequency of Mild, Moderate and Severe Hot Flash Numbers (10 mg group, Baseline, ITT): 66.0 (13.89)
- Weekly Mean Frequency of Moderate and Severe Hot Flash Numbers (10 mg group, Baseline, ITT): 63.1 (14.23)
- Mean Severity Scores by Week (10 mg group, Baseline, ITT, mild=1, moderate=2, severe=3): 2.37 (0.347)
- Composite Scores by Week (10 mg group, Baseline, ITT, frequency x severity): 156.45
- Composite Scores by Week (25 mg daily PO, Week 1, ITT): 142.71
- Mean Severity Scores by Week (25 mg daily PO, Week 1, ITT): 2.12 (0.392)
- Weekly Mean Frequency of Mild, Moderate and Severe Hot Flash Numbers (25 mg daily PO, Week 1, ITT): 64.4 (48.88)
- Weekly Mean Frequency of Moderate and Severe Hot Flash Numbers (25 mg daily PO, Week 1, ITT): 57.7 (50.49)
- Composite Scores by Week (25 mg daily PO, Week 2, ITT): 102.82
- Mean Severity Scores by Week (25 mg daily PO, Week 2, ITT): 2.09 (0.447)
- Weekly Mean Frequency of Mild, Moderate and Severe Hot Flash Numbers (25 mg daily PO, Week 2, ITT): 48.0 (48.80)
- Weekly Mean Frequency of Moderate and Severe Hot Flash Numbers (25 mg daily PO, Week 2, ITT): 42.3 (49.73)
- Composite Scores by Week (25 mg daily PO, Week 3, ITT): 102.59
- Mean Severity Scores by Week (25 mg daily PO, Week 3, ITT): 2.14 (0.408)
- Weekly Mean Frequency of Mild, Moderate and Severe Hot Flash Numbers (25 mg daily PO, Week 3, ITT): 46.6 (56.27)
- Weekly Mean Frequency of Moderate and Severe Hot Flash Numbers (25 mg daily PO, Week 3, ITT): 43.3 (57.15)
- Composite Scores by Week (25 mg daily PO, Week 4, ITT): 89.59
- Mean Severity Scores by Week (25 mg daily PO, Week 4, ITT): 2.06 (0.404)
- Weekly Mean Frequency of Mild, Moderate and Severe Hot Flash Numbers (25 mg daily PO, Week 4, ITT): 42.4 (53.18)
- Weekly Mean Frequency of Moderate and Severe Hot Flash Numbers (25 mg daily PO, Week 4, ITT): 37.4 (54.76)
- Weekly Mean Frequency of Mild, Moderate and Severe Hot Flash Numbers (25 mg group, Baseline, ITT): 75.8 (46.46)
- Weekly Mean Frequency of Moderate and Severe Hot Flash Numbers (25 mg group, Baseline, ITT): 65.9 (44.30)
- Mean Severity Scores by Week (25 mg group, Baseline, ITT, mild=1, moderate=2, severe=3): 2.26 (0.348)
- Composite Scores by Week (25 mg group, Baseline, ITT, frequency x severity): 165.47
- Composite Scores by Week (50 mg daily PO, Week 1, ITT): 104.35
- Mean Severity Scores by Week (50 mg daily PO, Week 1, ITT): 1.92 (0.402)
- Weekly Mean Frequency of Mild, Moderate and Severe Hot Flash Numbers (50 mg daily PO, Week 1, ITT): 54.0 (27.15)
- Weekly Mean Frequency of Moderate and Severe Hot Flash Numbers (50 mg daily PO, Week 1, ITT): 41.7 (23.79)
- Composite Scores by Week (50 mg daily PO, Week 2, ITT): 87.78
- Mean Severity Scores by Week (50 mg daily PO, Week 2, ITT): 1.88 (0.535)
- Weekly Mean Frequency of Mild, Moderate and Severe Hot Flash Numbers (50 mg daily PO, Week 2, ITT): 45.8 (25.16)
- Weekly Mean Frequency of Moderate and Severe Hot Flash Numbers (50 mg daily PO, Week 2, ITT): 32.8 (25.52)
- Composite Scores by Week (50 mg daily PO, Week 3, ITT): 77.67
- Mean Severity Scores by Week (50 mg daily PO, Week 3, ITT): 1.86 (0.544)
- Weekly Mean Frequency of Mild, Moderate and Severe Hot Flash Numbers (50 mg daily PO, Week 3, ITT): 40.5 (22.37)
- Weekly Mean Frequency of Moderate and Severe Hot Flash Numbers (50 mg daily PO, Week 3, ITT): 29.6 (25.09)
- Composite Scores by Week (50 mg daily PO, Week 4, ITT): 75.06
- Mean Severity Scores by Week (50 mg daily PO, Week 4, ITT): 1.83 (0.568)
- Weekly Mean Frequency of Mild, Moderate and Severe Hot Flash Numbers (50 mg daily PO, Week 4, ITT): 37.9 (23.45)
- Weekly Mean Frequency of Moderate and Severe Hot Flash Numbers (50 mg daily PO, Week 4, ITT): 29.4 (26.53)
- Weekly Mean Frequency of Mild, Moderate and Severe Hot Flash Numbers (50 mg group, Baseline, ITT): 76.0 (36.96)
- Weekly Mean Frequency of Moderate and Severe Hot Flash Numbers (50 mg group, Baseline, ITT): 71.9 (36.92)
- Mean Severity Scores by Week (50 mg group, Baseline, ITT, mild=1, moderate=2, severe=3): 2.14 (0.313)
- Composite Scores by Week (50 mg group, Baseline, ITT, frequency x severity): 162.19
- Composite Scores by Week (100 mg daily PO, Week 1, ITT): 104.35
- Mean Severity Scores by Week (100 mg daily PO, Week 1, ITT): 2.04 (0.334)
- Weekly Mean Frequency of Mild, Moderate and Severe Hot Flash Numbers (100 mg daily PO, Week 1, ITT): 48.6 (23.32)
- Weekly Mean Frequency of Moderate and Severe Hot Flash Numbers (100 mg daily PO, Week 1, ITT): 41.9 (24.23)
- Composite Scores by Week (100 mg daily PO, Week 2, ITT): 87.18
- Mean Severity Scores by Week (100 mg daily PO, Week 2, ITT): 2.01 (0.406)
- Weekly Mean Frequency of Mild, Moderate and Severe Hot Flash Numbers (100 mg daily PO, Week 2, ITT): 41.6 (27.37)
- Weekly Mean Frequency of Moderate and Severe Hot Flash Numbers (100 mg daily PO, Week 2, ITT): 35.6 (28.06)
- Composite Scores by Week (100 mg daily PO, Week 3, ITT): 59.75
- Mean Severity Scores by Week (100 mg daily PO, Week 3, ITT): 1.88 (0.473)
- Weekly Mean Frequency of Mild, Moderate and Severe Hot Flash Numbers (100 mg daily PO, Week 3, ITT): 29.4 (23.91)
- Weekly Mean Frequency of Moderate and Severe Hot Flash Numbers (100 mg daily PO, Week 3, ITT): 24.5 (24.06)
- Composite Scores by Week (100 mg daily PO, Week 4, ITT): 43.67
- Mean Severity Scores by Week (100 mg daily PO, Week 4, ITT): 1.89 (0.484)
- Weekly Mean Frequency of Mild, Moderate and Severe Hot Flash Numbers (100 mg daily PO, Week 4, ITT): 23.1 (19.45)
- Weekly Mean Frequency of Moderate and Severe Hot Flash Numbers (100 mg daily PO, Week 4, ITT): 18.6 (19.16)
- Weekly Mean Frequency of Mild, Moderate and Severe Hot Flash Numbers (100 mg group, Baseline, ITT): 63.6 (13.23)
- Weekly Mean Frequency of Moderate and Severe Hot Flash Numbers (100 mg group, Baseline, ITT): 58.5 (12.67)
- Mean Severity Scores by Week (100 mg group, Baseline, ITT, mild=1, moderate=2, severe=3): 2.21 (0.330)
- Composite Scores by Week (100 mg group, Baseline, ITT, frequency x severity): 140.35
